Measured values from patent publication US20120264735A1 (priority 2009, published 2012).

biological target: T1, c-Met kinase (recombinant c-Met) (Homo sapiens, UniProt P08581); assay: In vitro kinase assay I (homogeneous time-resolved fluorescence tyrosine kinase assay); assay type: biochemical
T1 construct: 0.27 nM recombinant c-Met
How it was run: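 Biotinylated peptide (0.5 μM) phosphorylated by 0.2 nM recombinant c-Met with 50 μM MgATP, 60 min at room temperature, pH 7.4, 5% DMSO. EDTA stop; HTRF read with Eu-anti-phosphotyrosine antibody and streptavidin-APC. IC50 from 4-parameter logistic fit.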

T1 sequence (P08581 25-1390): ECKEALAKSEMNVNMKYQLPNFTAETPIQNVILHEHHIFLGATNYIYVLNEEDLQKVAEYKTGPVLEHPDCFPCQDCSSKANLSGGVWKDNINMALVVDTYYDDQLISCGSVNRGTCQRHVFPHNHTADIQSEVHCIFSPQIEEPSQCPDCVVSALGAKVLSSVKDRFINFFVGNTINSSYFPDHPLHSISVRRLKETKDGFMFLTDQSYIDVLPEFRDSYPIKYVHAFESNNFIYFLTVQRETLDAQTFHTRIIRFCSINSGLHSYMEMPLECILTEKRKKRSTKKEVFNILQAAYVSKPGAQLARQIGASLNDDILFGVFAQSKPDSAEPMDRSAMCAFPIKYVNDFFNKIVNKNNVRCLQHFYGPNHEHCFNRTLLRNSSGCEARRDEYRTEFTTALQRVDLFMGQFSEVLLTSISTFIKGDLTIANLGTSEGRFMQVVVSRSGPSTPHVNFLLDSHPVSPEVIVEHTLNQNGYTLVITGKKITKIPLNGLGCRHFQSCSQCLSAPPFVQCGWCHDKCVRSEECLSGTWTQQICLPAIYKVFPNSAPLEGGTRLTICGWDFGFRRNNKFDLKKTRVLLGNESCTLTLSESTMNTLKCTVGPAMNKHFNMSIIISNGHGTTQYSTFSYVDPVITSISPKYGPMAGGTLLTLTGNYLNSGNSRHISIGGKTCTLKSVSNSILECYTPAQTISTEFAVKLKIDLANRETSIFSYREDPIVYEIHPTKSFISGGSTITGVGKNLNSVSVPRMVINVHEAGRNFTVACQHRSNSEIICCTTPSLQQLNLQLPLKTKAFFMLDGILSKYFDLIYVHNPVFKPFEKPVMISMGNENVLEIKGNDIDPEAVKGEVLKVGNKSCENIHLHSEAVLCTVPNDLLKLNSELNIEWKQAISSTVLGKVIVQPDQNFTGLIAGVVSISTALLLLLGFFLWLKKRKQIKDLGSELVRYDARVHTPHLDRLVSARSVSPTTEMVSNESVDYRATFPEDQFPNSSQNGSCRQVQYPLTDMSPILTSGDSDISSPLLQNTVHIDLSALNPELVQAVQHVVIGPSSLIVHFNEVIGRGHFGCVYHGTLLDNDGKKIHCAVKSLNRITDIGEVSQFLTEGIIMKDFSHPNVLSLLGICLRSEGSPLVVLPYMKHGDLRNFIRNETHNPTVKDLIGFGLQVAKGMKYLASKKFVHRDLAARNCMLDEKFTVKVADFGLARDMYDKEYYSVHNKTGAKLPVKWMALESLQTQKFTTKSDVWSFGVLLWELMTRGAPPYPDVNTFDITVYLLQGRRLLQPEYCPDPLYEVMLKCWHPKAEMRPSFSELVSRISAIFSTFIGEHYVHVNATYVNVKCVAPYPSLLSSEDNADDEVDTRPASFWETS

SMILES	IC50 [nM]
Cn1cc(-n2ccc(=O)c(Cc3cccc(-c4ncc(-c5cscn5)cn4)c3)n2)cn1 [Example 422, 1-(1-methyl-1H-pyrazol-4-yl)-3-{3-[5-(1,3-thiazol-4-yl)pyrimidin-2-yl]benzyl}pyridazin-4(1H)-one]	< 100
Cn1cc(-n2ccc(=O)c(Cc3cccc(-c4ncc(N5CCOCC5)cn4)c3)n2)cn1 [Example 472, 1-(1-methyl-1H-pyrazol-4-yl)-3-[3-(5-morpholin-4-ylpyrimidin-2-yl)benzyl]pyridazin-4(1H)-one]	< 100
O=C(Nc1cccc(Cc2nn(-c3ccc(F)c(F)c3)ccc2=O)c1)OCCN1CCOCC1 [Example 22, 2-morpholin-4-ylethyl (3-{[1-(3,4-difluorophenyl)-4-oxo-1,4-dihydropyridazin-3-yl]methyl}phenyl)carbamate]	< 100
Cn1cc(-n2ccc(=O)c(Cc3cccc(NC(=O)OCC4CCO4)c3)n2)cn1 (racemic) [Example 578, rac-oxetan-2-ylmethyl (3-{[1-(1-methyl-1H-pyrazol-4-yl)-4-oxo-1,4-dihydropyridazin-3-yl]methyl}phenyl)carbamate]	< 100
Cn1cc(-n2ccc(=O)c(Cc3cccc(-c4ncc(N5CCCCC5)cn4)c3)n2)cn1 [Example 441, 1-(1-methyl-1H-pyrazol-4-yl)-3-[3-(5-piperidin-1-ylpyrimidin-2-yl)benzyl]pyridazin-4(1H)-one]	< 100
Cn1cc(-n2ccc(=O)c(Cc3cccc(-c4ncc(C5=CCOC5)cn4)c3)n2)cn1 [Example 175, 3-{3-[5-(2,5-dihydrofuran-3-yl)pyrimidin-2-yl]benzyl}-1-(1-methyl-1H-pyrazol-4-yl)pyridazin-4(1H)-one]	< 100
Cn1cc(-n2ccc(=O)c(Cc3cccc(-c4ncc(C(=O)NCC5COCCO5)cn4)c3)n2)cn1 (racemic) [Example 476, rac-N-(1,4-dioxan-2-ylmethyl)-2-(3-{[1-(1-methyl-1H-pyrazol-4-yl)-4-oxo-1,4-dihydro-pyridazin-3-yl]methyl}phenyl)pyrimidine-5-carboxamide]	< 100
Cn1cc(-n2ccc(=O)c(Cc3cccc(NC(=O)OCC(F)(F)CN4CCOCC4)c3)n2)cn1 [Example 525, 2,2-difluoro-3-morpholin-4-ylpropyl (3-{[1-(1-methyl-1H-pyrazol-4-yl)-4-oxo-1,4-dihydropyridazin-3-yl]methyl}phenyl)carbamate]	< 100
CC1CCN(CCCOC(=O)Nc2cccc(Cc3nn(-c4cc(F)c(F)c(F)c4)ccc3=O)c2)CC1 [Example 553, 3-(4-methylpiperidin-1-yl)propyl (3-{[4-oxo-1-(3,4,5-trifluorophenyl)-1,4-dihydropyridazin-3-yl]methyl}phenyl)carbamate]	< 100
O=C(Nc1cccc(Cc2nn(-c3cc(F)c(F)c(F)c3)ccc2=O)c1)OCC1COCCO1 (racemic) [Example 513, rac-1,4-dioxan-2-ylmethyl (3-{[4-oxo-1-(3,4,5-trifluorophenyl)-1,4-dihydropyridazin-3-yl]methyl}phenyl)carbamate]	< 100
O=C1CN(CCOC(=O)Nc2cccc(Cc3nn(-c4ccc(F)c(F)c4)ccc3=O)c2)CCN1 [Example 529, 2-(3-oxopiperazin-1-yl)ethyl (3-{[1-(3,4-difluorophenyl)-4-oxo-1,4-dihydropyridazin-3-yl]methyl}phenyl)carbamate]	< 100
CC(C)COC(=O)Nc1cccc(Cc2nn(-c3ccc(F)c(F)c3)ccc2=O)c1 [Example 505, 2-methylpropyl (3-{[1-(3,4-difluorophenyl)-4-oxo-1,4-dihydropyridazin-3-yl]methyl}phenyl)carbamate]	< 100
O=c1ccn(-c2cc(F)cc(F)c2)nc1Cc1cccc(-c2ncc(OC3COC3)cn2)c1 [Example 330]	< 100
COCCOC(=O)Nc1cccc(Cc2nn(-c3cn[nH]c3)ccc2=O)c1 [Example 196, 2-methoxyethyl (3-{[4-oxo-1-(1H-pyrazol-4-yl)-1,4-dihydropyridazin-3-yl]methyl}phenyl)carbamate]	< 100
COCCOC(=O)Nc1cccc(Cc2nn(-c3cc(F)cc(C(N)=O)c3)ccc2=O)c1 [Example 737, 2-methoxyethyl [3-({1-[3-(aminocarbonyl)-5-fluorophenyl]-4-oxo-1,4-dihydropyridazin-3-yl}methyl)phenyl] carbamate]	< 100
Cn1cc(-n2ccc(=O)c(Cc3cccc(NC(=O)Cc4ccccc4)c3)n2)cn1 [Example 632, N-(3-{[1-(1-methyl-1H-pyrazol-4-yl)-4-oxo-1,4-dihydropyridazin-3-yl]methyl}phenyl)-2-phenylacetamide]	1000 to 3000
Cn1cc(-c2cnc(-c3cccc(Cc4nn(-c5cnn(C)c5)ccc4=O)c3)nc2)cn1 [Example 154, 1-(1-methyl-1H-pyrazol-4-yl)-3-{3-[5-(1-methyl-1H-pyrazol-4-yl)pyrimidin-2-yl]benzyl}pyridazin-4(1H)-one]	< 100
CCOC(=O)Nc1cccc(Cc2nn(-c3cccc(OCC)c3)ccc2=O)c1 [Example 650, Ethyl(3-{[1-(3-ethoxyphenyl)-4-oxo-1,4-dihydropyridazin-3-yl]methyl}phenyl)carbamate]	100 to 1000
N#Cc1cc(F)cc(-n2ccc(=O)c(Cc3cccc(NC(=O)OCC4CCOC4)c3)n2)c1 (racemic) [Example 131, rac-tetrahydrofuran-3-ylmethyl (3-{[1-(3-cyano-5-fluorophenyl)-4-oxo-1,4-dihydropyridazin-3-yl]methyl}phenyl)carbamate]	< 100

Continued, values first:

IC50 [nM]	SMILES
100 to 1000	CCOc1cnc2ccc(C(C)c3nn(-c4cnn(CC)c4)ccc3=O)cc2c1 (single isomer, unassigned) [Example 226, 3-[(1S or R)-1-(3-ethoxyquinolin-6-yl)ethyl]-1-(1-ethyl-1H-pyrazol-4-yl)pyridazin-4(1H)-one]
100 to 1000	CCOc1cnc(-c2cccc(Cc3nn(-c4cnn(CC(=O)N(C)C)c4)ccc3=O)c2)nc1 [Example 662, 2-(4-{3-[3-(5-ethoxypyrimidin-2-yl)benzyl]-4-oxopyridazin-1(4H)-yl}-1H-pyrazol-1-yl)-N,N-dimethylacetamide]
< 100	CC(C)COC(=O)Nc1cccc(Cc2nn(-c3cnn(CC(F)(F)F)c3)ccc2=O)c1 [Example 93, 2-methylpropyl [3-({4-oxo-1-[1-(2,2,2-trifluoroethyl)-1H-pyrazol-4-yl]-1,4-dihydropyridazin-3-yl}methyl)phenyl]carbamate]
< 100	CCn1cnc(-c2cccc(Cc3nn(-c4cccc(C(N)=O)c4)ccc3=O)c2)n1 [Example 734, 3-{3-[3-(1-Ethyl-1H-1,2,4-triazol-3-yl)benzyl]-4-oxopyridazin-1(4H)-yl}benzamide]
< 100	CCn1cc(-n2ccc(=O)c(C(C)c3cccc(-c4ncc(OCC5(F)CCN(C(=O)OC(C)(C)C)CC5)cn4)c3)n2)cn1 (single isomer, unassigned) [Example 290, tert-butyl 4-({[2-(3-{(1R or S)-1-[1-(1-ethyl-1H pyrazol-4-yl)-4-oxo-1,4-dihydropyridazin-3-yl]ethyl}phenyl)pyrimidin-5-yl]oxy}methyl)-4-fluoropiperidine-1-carboxylate]
< 100	CCOC(=O)Nc1cccc(Cc2nn(-c3cnn(CC(F)(F)F)c3)ccc2=O)c1 [Example 111, ethyl [3-({4-oxo-1-[1-(2,2,2-trifluoroethyl)-1H-pyrazol-4-yl]-1,4-dihydropyridazin-3-yl}methyl)phenyl]carbamate]
< 100	CCn1cc(-n2ccc(=O)c(C(C)c3cccc(-c4ncc(OCCN5CCOCC5)cn4)c3)n2)cn1 (single isomer, unassigned) [Example 300, 1-(1-ethyl-1H-pyrazol-4-yl)-3-[(1R or S)-1-{3-[5-(2-morpholin-4-ylethoxy)pyrimidin-2-yl]phenyl}ethyl]pyridazin-4(1H)-one]
100 to 1000	CCOc1cnc(-c2cccc(C(OC)c3nn(-c4cnn(C)c4)ccc3=O)c2)nc1 (racemic) [Example 659, rac-3-[[3-(5-Ethoxypyrimidin-2-yl)phenyl](methoxy)methyl]-1-(1-methyl-1H-pyrazol-4-yl)pyridazin-4(1H)-one]
< 100	CC(c1cccc(-c2ncc(F)c(C3CC3)n2)c1)c1nn(-c2cnn(C)c2)ccc1=O (single isomer, unassigned) [Example 692, 3-{(1R or S)-1-[3-(4-cyclopropyl-5-fluoropyrimidin-2-yl)phenyl]ethyl}-1-(1-methyl-1H-pyrazol-4-yl)pyridazin-4(1H)-one]
< 100	CCn1cc(-n2ccc(=O)c(Cc3cccc(-c4ncc(OCc5cc(C)no5)cn4)c3)n2)cn1 [Example 313, 1-(1-ethyl-1H-pyrazol-4-yl)-3-(3-{5-[(3-methylisoxazol-5-yl)methoxy]primidin-2-yl}benzyl)pyridazin-4(1H)-one]
< 100	CCOCc1cnc(-c2cccc(Cc3nn(-c4cnn(C)c4)ccc3=O)c2)nc1 [Example 162, 3-{3-[5-(ethoxymethyl)pyrimidin-2-yl]benzyl}-1-(1-methyl-1H-pyrazol-4-yl)pyridazin-4(1H)-one]
< 100	COc1cnc(-c2cccc(Cc3nn(-c4cnn(CC(C)C)c4)ccc3=O)c2)nc1 [Example 95, 3-[3-(5-methoxypyrimidin-2-yl)benzyl]-1-[1-(2-methylpropyl)-1H-pyrazol-4-yl]pyridazin-4(1H)-one]
< 100	Cn1cc(-n2ccc(=O)c(Cc3cccc(-c4ncc(OCc5ncn(C)n5)cn4)c3)n2)cn1 [Example 356, 1-(1-methyl-1H-pyrazol-4-yl)-3-(3-{5-[(1-methyl-1H-1,2,4-triazol-3-yl)methoxy]pyrimidin-2-yl}benzyl)pyridazin-4(1H)-one]
< 100	CCOc1cnc(-c2cc(F)cc(Cc3nn(-c4cnn(C)c4)ccc3=O)c2)nc1 [Example 120, 3-[3-(5-ethoxypyrimidin-2-yl)-5-fluorobenzyl]-1-(1-methyl-1H-pyrazol-4-yl)pyridazin-4(1H)-one]
< 100	COCCCn1cnc(-c2cccc(Cc3nn(-c4cnn(C)c4)ccc3=O)c2)n1 [Example 77, 3-{3-[1-(3-methoxypropyl)-1H-1,2,4-triazol-3-yl]benzyl}-1-(1-methyl-1H-pyrazol-4-yl)pyridazin-4(1H)-one]
